Series [1] is described as follows: Cytotoxicity against human THP1 cells at 50 uM after 48 hrs by MTT assay. In kind it is functional. Particulars: THP-1, 48 h, read-out: GI.
Series [2] is described as follows: Cytotoxicity against human FR2 cells after 48 hrs by MTT assay. In kind it is cell-based. The following applies: FR2, 48 h. On the technique in general: Formazan colour is commonly taken as a measure of viable cells.
For series [3], the system named is A549. Briefly: Cytotoxicity against human A549 cells at 50 uM after 48 hrs by MTT assay. Format: functional. Particulars: A549, 48 h, read-out: GI.
The subject of series [4] is A549. Briefly: Cytotoxicity against human A549 cells after 48 hrs by MTT assay. Format: functional, cell-based. The following applies: A549, 48 h.
Series [5] relates to MCF7. Briefly: Cytotoxicity against human MCF7 cells after 48 hrs by MTT assay. Format: functional, cell-based. Particulars: MCF7, 48 h.
Series [6] in a line: Cytotoxicity against human THP1 cells after 48 hrs by MTT assay. In kind it is functional, cell-based. Particulars: THP-1, 48 h.
The nature of series [7]: Cytotoxicity against human HCT116 cells after 48 hrs by MTT assay. Format: functional, cell-based. Particulars: HCT-116, 48 h.
A short description of series [8]: Cytotoxicity against human HCT116 cells at 50 uM after 48 hrs by MTT assay. In kind it is functional. The following applies: HCT-116, 48 h, read-out: GI.
A short description of series [9]: Cytotoxicity against human FR2 cells at 50 uM after 48 hrs by MTT assay. The following applies: read-out: GI. In kind it is cell-based.
Series [10] concerns MCF7. Briefly: Cytotoxicity against human MCF7 cells at 50 uM after 48 hrs by MTT assay. In kind it is functional. Particulars: MCF7, 48 h, read-out: GI.
Series [11] relates to HCT-116. Briefly: Induction of apoptosis in human HCT116 cells assessed as membrane blebbing at 10 to 20 uM after 24 hrs by acridine orange/ethidium bromide staining-based fluorescence microscopy. Format: functional, cell-based.
In series [12] the test system is HCT-116. Briefly: Induction of apoptosis in human HCT116 cells at 20 uM after 24 hrs by Hoechst 33258 staining-based fluorescence microscopy. Format: functional, cell-based.
Series [13] is described as follows: Induction of apoptosis in human HCT116 cells assessed as upregulation of caspase-9 expression at 20 uM after 24 hrs by Western blotting method. Particulars: HCT-116. Format: functional, cell-based.
Series [14] is described as follows: Induction of apoptosis in human HCT116 cells assessed as upregulation of caspase-3 expression at 20 uM after 24 hrs by Western blotting method. Format: functional, cell-based. Particulars: HCT-116.
Series [15] concerns HCT-116. Briefly: Induction of cell cycle arrest in human HCT116 cells assessed as accumulation at G2 phase at 20 uM after 48 hrs by propidium iodide staining-based flow cytometry (reference value: 32.43%). Format: functional. (In general: In flow cytometry, cells or beads pass a laser one at a time.)
Series [16] has as its system HCT-116. Briefly: Induction of apoptosis in human HCT116 cells assessed as cell budding at 10 to 20 uM after 24 hrs by acridine orange/ethidium bromide staining-based fluorescence microscopy. In kind it is functional.
The nature of series [17]: Downregulation of Bcl2 expression in human HCT116 cells at 20 uM after 24 hrs by Western blotting method. In kind it is functional, cell-based. The following applies: HCT-116. A general note: Immunoblotting shows a protein as a band on a membrane.
Series [18] can be described thus: Upregulation of Bax expression in human HCT116 cells at 20 uM after 24 hrs by Western blotting method. In kind it is functional, cell-based. The following applies: HCT-116.
Series [19] deals with HCT-116. Briefly: Induction of cell cycle arrest in human HCT116 cells assessed as accumulation at G1 phase at 20 uM after 48 hrs by propidium iodide staining-based flow cytometry (reference value: 41.51%). Format: functional.
The test system of series [20] is HCT-116. Briefly: Induction of apoptosis in human HCT116 cells at 20 uM after 24 hrs by JC-1 staining-based fluorescence microscopy. In kind it is functional, cell-based.
The test system of series [21] is HCT-116. Briefly: Induction of apoptosis in human HCT116 cells assessed as pycnosis at 10 to 20 uM after 24 hrs by acridine orange/ethidium bromide staining-based fluorescence microscopy. In kind it is functional, cell-based.

Active and inactive are the calls of the source. The rule behind the calls is not given here. Some results are limits rather than exact numbers.

Broadly, the IC50 is the concentration at which inhibition is half-maximal. Lower therefore signals greater potency.

Take `COc1ccccc1/C=C1\C[C@]2(C)[C@H]3CC=C4[C@@H]5[C@@H](C)[C@H](C)CC[C@]5(C(=O)O)CC[C@@]4(C)[C@]3(C)CC[C@H]2C(C)(C)C1=O`: the inhibition of growth at 50 µM in series [1] amounted to 96%; in the series on A549 [3], 90%; in series [8], 98%; in the series on MCF7 [10] it was 99%. For the same molecule, the half-inhibitory concentration (IC50) in series [2] came out at 8.6 µM; with A549 [4] it was 0.5 µM; with MCF7 [5], 5 µM; in series [6], 0.9 µM; in series [7], 2.1 µM. Moreover, the inhibition at 48 h, 50 µM in series [9] came to 85%.

On to `C[C@H]1[C@H](C)CC[C@]2(C(=O)O)CC[C@]3(C)C(=CC[C@@H]4[C@@]5(C)C/C(=C\c6ccc([N+](=O)[O-])cc6[N+](=O)[O-])C(=O)C(C)(C)[C@@H]5CC[C@]43C)[C@H]12`, for which the inhibition of growth at 50 µM (in series [1]; in the series with A549 [3]; in series [8]; in the series with MCF7 [10]) was 98% throughout. In addition, the IC50 turned out to be 70 µM in series [2]; 2 µM in the series on A549 [4]; 4.1 µM in the series on MCF7 [5]; 4.1 µM in series [6]; 5 µM in series [7]. Besides, the inhibition at 48 h, 50 µM in [9] was found to be 95%.

As for `C[C@H]1[C@H](C)CC[C@]2(C(=O)O)CC[C@]3(C)C(=CC[C@@H]4[C@@]5(C)C/C(=C\c6ccc(Cl)cc6)C(=O)C(C)(C)[C@@H]5CC[C@]43C)[C@H]12`, the inhibition of growth at 50 µM (in [1]; in the series with A549 [3]; in series [8]; in the series on MCF7 [10]) was 99% throughout. Moreover, the IC50 in [2] stood at 69 µM; in the series with A549 [4], 2.9 µM; in the series with MCF7 [5], 4.1 µM; in series [6], 12 µM; in series [7], 15 µM. Besides, the inhibition at 48 h, 50 µM in series [9] turned out to be 99%.

As for `C[C@H]1[C@H](C)CC[C@]2(C(=O)O)CC[C@]3(C)C(=CC[C@@H]4[C@@]5(C)C/C(=C\c6cc(O)ccc6O)C(=O)C(C)(C)[C@@H]5CC[C@]43C)[C@H]12`, the inhibition of growth at 50 µM in series [1] was found to be 94%; in the series on A549 [3] it was 93%; in series [8], 99%; in the series with MCF7 [10], 100%. Besides, the 50% inhibitory concentration (IC50) is 0.8 µM in series [2]; 0.55 µM in the series with A549 [4]; 5.5 µM with MCF7 [5]; 0.9 µM in [6]; under 0.1 µM in series [7]. In addition, the outcome (in the series with HCT-116 [11]; in the series with HCT-116 [12]; in series [13]; in series [14]; in the series on HCT-116 [16]; in series [17]) was Active. The outcome (in series [18]; with HCT-116 [20]; in the series on HCT-116 [21]) was Active. Besides, the Activity is listed as 11.65% in the series with HCT-116 [15] and 65.58% in the series with HCT-116 [19]. Further, the inhibition at 48 h, 50 µM in series [9] is 91%.

The values are drawn from ChEMBL document CHEMBL3785053, “Synthesis and screening of ursolic acid-benzylidine derivatives as potential anti-cancer agents” (Eur J Med Chem, 2016).
